Patent US4442115A, “2'Hydroxy tetrazole-5-carboxanilides and anti-allergic use thereof” (May & Baker Limited, priority 1977, dated 1984)

Experiments:
Assay type in all cases: in vivo
[1] = test system: passive cutaneous anaphylactic (PCA) reaction; assay: suppression of passive cutaneous anaphylactic (PCA) reaction, intravenous administration; settings: Rattus norvegicus, rats, i.v., just before injection of allergen, read-out: ED 100 (i.v.): intravenous dose which produces 100% inhibition of the PCA reaction
Description: (§1) In pharmacological tests the new compounds suppress the passive cutaneous anaphylactic (PCA) reaction resulting from combination of tissue-fixed reaginic antibodies with the appropriate antigenic material (termed reagin-allergen combination) and carried out in an essentially similar manner to that described by Ogilvie [Nature (Lond.), (1964), 204, 91-92; Immunology, (1967), 12, 112-131]. In the method used to test these compounds sera were obtained from rats which had been infected with larvae of the nematode parasite Nippostrongylus brasiliensis; as a result of the parasitic infestation reaginic antibodies are elaborated in the host mammal and are found in sera removed from such animals. Other, non-infected, rats received intradermal injections of appropriate dilutions of such sera and were then given the allergenic material along with Evans' blue dye intravenously forty-eight hours later.
(§2) The allergenic material consisted of supernatant fluid after centrifugation of homogenates of adult Nippostrongylus brasiliensis worms which had been macerated in Tyrode's solution. The sites of PCA reactions were visualised by the effusion of Evans' blue dye from the circulation into those areas as a result of increased capillary permeability caused by the release of biologically-active substances from cells where reagin-allergen combination had occurred. The new compounds when given intravenously to the rats just before injection of allergen, or administered orally thirty minutes before intravenous injection of allergen, were able to prevent the development of the PCA reaction, as shown below in Table I and Table II.

[2] = test system: passive cutaneous anaphylactic (PCA) reaction; assay: suppression of passive cutaneous anaphylactic (PCA) reaction, oral administration; settings: Rattus norvegicus, rats, p.o., thirty minutes before intravenous injection of allergen, read-out: ED 50 (p.o.): oral dose which produces 50% inhibition of the PCA reaction
Description: as §1, §2

oral toxicity in mice = settings: 1000 mg/kg animal body weight, observation period of 3 days

Row | Compound | ED100 [1] [mg/kg] | ED50 [2] [mg/kg] | deaths during observation period (oral toxicity in mice)
1 | CC(=O)c1cc(F)cc(NC(=O)c2nnn[nH]2)c1O [K, 3'-acetyl-5'-fluoro-2'-hydroxytetrazole-5-carboxanilide] | 0.01 | – | –
2 | COc1cc(Br)cc(NC(=O)c2nnn[nH]2)c1O [CC, 5'-bromo-2'-hydroxy-3'-methoxytetrazole-5-carboxanilide] | 0.05 | 16 | –
3 | CCc1cc(NC(=O)c2nnn[nH]2)c(O)c(C(C)=O)c1 [Compound D, 3'-acetyl-5'-ethyl-2'-hydroxytetrazole-5-carboxanilide] | 0.01 | 0.19 | –
4 | CCCc1cc(NC(=O)c2nnn[nH]2)c(O)c(C(C)=O)c1 [Y, 3'-acetyl-2'-hydroxy-5'-propyltetrazole-5-carboxanilide] | 0.01 | 0.46 | –
5 | CCc1cc(NC(=O)c2nnn[nH]2)c(O)c(OC)c1 [S, 5'-ethyl-2'-hydroxy-3'-methoxytetrazole-5-carboxanilide] | 0.01 | 1.8 | –
6 | CCCC(=O)c1cc(C)cc(NC(=O)c2nnn[nH]2)c1O [U, 3'-butyryl-2'-hydroxy-5'-methyltetrazole-5-carboxanilide] | 0.05 | – | –
7 | CC(=O)c1cc(N)cc(NC(=O)c2nnn[nH]2)c1O [P, 3'-acetyl-5'-amino-2'-hydroxytetrazole-5-carboxanilide] | 0.05 | – | –
8 | Cc1cc(NC(=O)c2nnn[nH]2)c(O)c(C(=O)C2CC2)c1 [I, 3'-cyclopropylcarbonyl-2'-hydroxy-5'-methyltetrazole-5-carboxanilide] | 0.02 | – | no deaths occurred
9 | CCOC(=O)c1cc(C)cc(NC(=O)c2nnn[nH]2)c1O [X, 3'-ethoxycarbonyl-2'-hydroxy-5'-methyltetrazole-5-carboxanilide] | 0.01 | 36 | –
10 | COc1cc(NC(=O)c2nnn[nH]2)c(O)c(C(C)=O)c1 [M, 3'-acetyl-2'-hydroxy-5'-methoxytetrazole-5-carboxanilide] | 0.01 | – | –
11 | CC(=NO)c1cc(C)cc(NC(=O)c2nn[nH]n2)c1O [Compound DD, 2'-hydroxy-3'-(1-hydroxyimino)ethyl-5'-methyltetrazole-5-carboxanilide] | 0.002 | – | –
12 | O=C(Nc1ccccc1O)c1nnn[nH]1 [Compound A, 2'-hydroxytetrazole-5-carboxanilide] | 0.2 | 5.5 | –
13 | COc1cc(C)cc(NC(=O)c2nnn[nH]2)c1O [T, 2'-hydroxy-3'-methoxy-5'-methyltetrazole-5-carboxanilide] | 0.02 | 6.5 | –
14 | COC(=O)c1cc(C)cc(NC(=O)c2nnn[nH]2)c1O [W, 2'-hydroxy-3'-methoxycarbonyl-5'-methyltetrazole-5-carboxanilide] | 0.05 | 5.6 | –
15 | COc1cccc(NC(=O)c2nnn[nH]2)c1O [R, 2'-hydroxy-3'-methoxytetrazole-5-carboxanilide] | 0.02 | 2.9 | –
16 | CCC(=O)c1cc(CC)cc(NC(=O)c2nnn[nH]2)c1O [AA, 5'-ethyl-2'-hydroxy-3'-propionyltetrazole-5-carboxanilide] | 0.01 | 1.3 | –
17 | CCC(=O)c1cc(C#N)cc(NC(=O)c2nnn[nH]2)c1O [N, 5'-cyano-2'-hydroxy-3'-propionyltetrazole-5-carboxanilide] | 0.02 | – | –
18 | CC(=O)c1cc(C#N)cc(NC(=O)c2nnn[nH]2)c1O [H, 3'-acetyl-5'-cyano-2'-hydroxytetrazole-5-carboxanilide] | 0.01 | 0.4 | –
19 | CON=C(C)c1cc(C)cc(NC(=O)c2nn[nH]n2)c1O [EE, 2'-hydroxy-3'-(1-methoxyimino)ethyl-5'-methyltetrazole-5-carboxanilide] | 0.02 | – | –
20 | CCC(=O)c1cc(C)cc(NC(=O)c2nnn[nH]2)c1O [BB, 2'-hydroxy-5'-methyl-3'-propionyltetrazole-5-carboxanilide] | 0.02 | 0.88 | –
21 | CC(=O)c1cc(C)cc(NC(=O)c2nnn[nH]2)c1O [Compound B, 3'-acetyl-2'-hydroxy-5'-methyltetrazole-5-carboxanilide] | 0.01 | 0.06 | no deaths occurred
22 | CC(=O)c1cc(Br)cc(NC(=O)c2nnn[nH]2)c1O [L, 3'-acetyl-5'-bromo-2'-hydroxytetrazole-5-carboxanilide] | 0.05 | – | –
23 | CCc1cccc(NC(=O)c2nnn[nH]2)c1O [Compound C, 3'-ethyl-2'-hydroxytetrazole-5-carboxanilide] | 0.1 | 0.7 | –
24 | Cc1cc(NC(=O)c2nnn[nH]2)c(O)c(C(=O)N(C)C)c1 [V, 3'-(N,N-dimethylcarbamoyl)-2'-hydroxy-5'-methyltetrazole-5-carboxanilide] | 0.2 | – | –
25 | CC(=O)c1cc([N+](=O)[O-])cc(NC(=O)c2nnn[nH]2)c1O [E, 3'-acetyl-2'-hydroxy-5'-nitrotetrazole-5-carboxanilide] | 0.02 | 0.04 | –
26 | CC(=O)c1cccc(NC(=O)c2nnn[nH]2)c1O [Z, 3'-acetyl-2'-hydroxytetrazole-5-carboxanilide] | 0.005 | 0.06 | –
27 | Cc1cc(NC(=O)c2nnn[nH]2)c(O)c(C(=O)C(C)C)c1 [G, 2'-hydroxy-3'-isobutyryl-5'-methyltetrazole-5-carboxanilide] | 0.02 | 3.2 | –
